Source: patent US7897369B2, “Isoprenoid wax ester synthases, isoprenoid acyl CoA-synthetases, and uses thereof” (Regents of the University of Minnesota, priority 2007, dated 2011)

Tests used:
Format in all cases: biochemical, Marinobacter hydrocarbonoclasticus DSM 8798
WS2 [1] = molecular target: T1, WS2 (Marinobacter nauticus, UniProt A3RE51); test: Kinetic WS assay, spectrophotometric (CoA release, DTNB); conditions: both substrates 1 mM; for Acyl-CoA specificity of WS2: hexadecanol as acyl acceptor
Experimental: Assay reactions were preincubated at 37° C. for 5 min before the reactions were started by the addition of enzyme. Heat-denatured enzyme (99° C. for 15 min) was used as a negative control.
Acyl-CoA and fatty/isoprenoid alcohol specificity of WS2 was determined in the same manner as described for the kinetic WS assay with assumed saturating conditions containing both the fatty/isoprenoid alcohol and acyl-CoA substrates at a concentration of 1 mM. Acyl-CoA specificity was measured with hexadecanol as acyl acceptor, whereas palmitoyl-CoA was used as acyl donor to determine alcohol specificity.
A spectrophotometric assay was developed to determine the kinetic properties of WS1 and WS2. […] The specific activities of WS1, WS2, and Acinetobacter WS/DGAT were measured with palmitoyl-CoA and hexadecanol, palmitoyl-CoA and phytol, and phytanoyl-CoA and phytol. Phytanoyl-CoA for these assays was enzymatically synthesized from phytanic acid and CoA using the above-characterized isoprenoid/acyl-CoA synthetase Acs2.

WS1 = test: Coupled enzyme assay, WS substrate profile (TLC); design: key to WE formation (spot intensity of wax ester products on TLC), WS1, C10 / WE formation (spot intensity of wax ester products on TLC), WS1, C12 / WE formation (spot intensity of wax ester products on TLC), WS1, C14 / WE formation (spot intensity of wax ester products on TLC), WS1, C16 / WE formation (spot intensity of wax ester products on TLC), WS1, Phytol / WE formation (spot intensity of wax ester products on TLC), WS1, Farnesol: no activity (−); ranging from no activity (−) to most active (+++); ranging from no activity (−) to most active (+++); most active (+++); conditions: 12 h at 37° C., each substrate 250 μM; for WE formation (spot intensity of wax ester products on TLC), WS1, Farnesol: alcohol farnesol; for WE formation (spot intensity of wax ester products on TLC), WS1, Phytol: alcohol phytol; for WE formation (spot intensity of wax ester products on TLC), WS1, C10: fatty alcohol C10; for WE formation (spot intensity of wax ester products on TLC), WS1, C12: fatty alcohol C12; for WE formation (spot intensity of wax ester products on TLC), WS1, C14: fatty alcohol C14; for WE formation (spot intensity of wax ester products on TLC), WS1, C16: fatty alcohol C16
Experimental: (§1) Stock solutions of various substrates were prepared in 50 mM Tris-HCl buffer (pH 8) containing 1% gum arabic, 12.5 μg bovine serum albumin ml^−1, 0.1% taurocholate, and either 100 mM fatty acid, isoprenoid acid, fatty alcohol, or isoprenoid alcohol. Stock solutions were sonicated to disperse the substrates. Substrate profiles of the three WS were tested using coupled enzyme in vitro reactions in which the CoA synthetases Acs1 and Acs2 are added to synthesize the CoA-activated fatty acid phytanic acid substrates from corresponding acid precursors for the WS reactions. Assays were carried out in 500-μl reactions containing in 50 mM Tris-HCl buffer (pH 8.0), 12.5 μl of each acid, and alcohol substrate stock solution (final concentrations of each substrate of 250 μM), 10 mM MgCl2, 10 mM CoASH, 10 mM ATP, 5 mM TCEP, 0.1 U of inorganic pyrophosphatase, 0.25 μg of Acs1 and Acs2 CoA synthetase, and 0.5 μg of WS to be tested. Assays were incubated at 37° C. overnight before thin-layer chromatography (TLC) analysis of the reaction products.
(§2) In vitro WS assay samples were extracted with 500 μl of chloroformmethanol (1:1 [vol/vol]), and extracts were analyzed by TLC with Whatman normal phase silica gel 60 plates and developed using hexane-diethyl ether-acetic acid (90:10:1 [vol/vol/vol]). TLC plates were stained with either iodine vapor or anisaldehyde solution as described earlier (Jork et al., 1990. Thin-layer chromatography reagents and detection methods, vol. 1a. Physical and chemical detection methods: fundamentals, reagents. VHC, Weinheim, Germany). Palmitoyl palmitate and triolein were used as WE and TAG reference compounds, respectively.

WS2 [2] = molecular target: T1, WS2; test: Coupled enzyme assay, WS substrate profile (TLC); design: key to WE formation (spot intensity of wax ester products on TLC), WS2, C16 / WE formation (spot intensity of wax ester products on TLC), WS2, Phytol / WE formation (spot intensity of wax ester products on TLC), WS2, Farnesol / WE formation (spot intensity of wax ester products on TLC), WS2, C10 / WE formation (spot intensity of wax ester products on TLC), WS2, C12 / WE formation (spot intensity of wax ester products on TLC), WS2, C14: no activity (−); ranging from no activity (−) to most active (+++); ranging from no activity (−) to most active (+++); most active (+++); conditions: 12 h at 37° C., each substrate 250 μM; for WE formation (spot intensity of wax ester products on TLC), WS2, Farnesol: alcohol farnesol; for WE formation (spot intensity of wax ester products on TLC), WS2, Phytol: alcohol phytol; for WE formation (spot intensity of wax ester products on TLC), WS2, C10: fatty alcohol C10; for WE formation (spot intensity of wax ester products on TLC), WS2, C12: fatty alcohol C12; for WE formation (spot intensity of wax ester products on TLC), WS2, C14: fatty alcohol C14; for WE formation (spot intensity of wax ester products on TLC), WS2, C16: fatty alcohol C16
Experimental: as §1, §2

T1 sequence (A3RE51 entry or part of it): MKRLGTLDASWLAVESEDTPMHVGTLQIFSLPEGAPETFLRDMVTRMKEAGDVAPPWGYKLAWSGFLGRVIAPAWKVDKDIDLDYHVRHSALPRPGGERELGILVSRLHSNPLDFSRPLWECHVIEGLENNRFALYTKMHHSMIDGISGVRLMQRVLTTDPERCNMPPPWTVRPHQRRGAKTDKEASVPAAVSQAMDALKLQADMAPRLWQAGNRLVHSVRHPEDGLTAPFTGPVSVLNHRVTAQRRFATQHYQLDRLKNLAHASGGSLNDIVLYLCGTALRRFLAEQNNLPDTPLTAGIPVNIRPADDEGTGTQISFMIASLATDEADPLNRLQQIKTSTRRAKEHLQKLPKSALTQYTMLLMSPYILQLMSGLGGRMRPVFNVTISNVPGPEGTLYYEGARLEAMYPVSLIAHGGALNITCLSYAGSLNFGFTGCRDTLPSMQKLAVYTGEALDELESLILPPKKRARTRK

SMILES	Acyl-CoA specificity of WS2 (WS2 [1])	WE formation (spot intensity of wax ester products on TLC), WS1, Farnesol (WS1)	WE formation (spot intensity of wax ester products on TLC), WS1, Phytol (WS1)	WE formation (spot intensity of wax ester products on TLC), WS1, C10 (WS1)	WE formation (spot intensity of wax ester products on TLC), WS1, C12 (WS1)	WE formation (spot intensity of wax ester products on TLC), WS1, C14 (WS1)	WE formation (spot intensity of wax ester products on TLC), WS1, C16 (WS1)	WE formation (spot intensity of wax ester products on TLC), WS2, Farnesol (WS2 [2])	WE formation (spot intensity of wax ester products on TLC), WS2, Phytol (WS2 [2])	WE formation (spot intensity of wax ester products on TLC), WS2, C10 (WS2 [2])	WE formation (spot intensity of wax ester products on TLC), WS2, C12 (WS2 [2])	WE formation (spot intensity of wax ester products on TLC), WS2, C14 (WS2 [2])	WE formation (spot intensity of wax ester products on TLC), WS2, C16 (WS2 [2])	Fatty/isoprenoid alcohol specificity of WS2 (WS2 [1]; palmitoyl-CoA as acyl donor)
CCCCCCCCCCCCCCCCCC(=O)SCCNC(=O)CCNC(=O)[C@H](O)C(C)(C)COP(=O)(O)OP(=O)(O)OC[C@H]1O[C@@H](n2cnc3c(N)ncnc32)[C@H](O)[C@@H]1OP(=O)(O)O [stearoyl-CoA, stearoyl-CoA (C18:0)]	readily accepted													
CCCCCCCCCCCCCCCCCCCC(=O)O [C20]		++	++	+	+	+	+	+	+	−	−	+	+	
CCCCCCCCCCCCCC(=O)O [C14]		++	+	−	−	++	+	++	+	++	+	++	+	
CCCCCCCCCC(=O)O [C10]		+++	−	+	+	−	+	+	+	+	+	−	+	
CCCCCCCCCCCCCCCCCCCC(=O)SCCNC(=O)CCNC(=O)[C@H](O)C(C)(C)COP(=O)(O)OP(=O)(O)OC[C@H]1O[C@@H](n2cnc3c(N)ncnc32)[C@H](O)[C@@H]1OP(=O)(O)O [arachidoyl-CoA, arachidoyl-CoA (C20:0)]	readily accepted													
CCCCCC/C=C\CCCCCCCC(=O)O [C16Δcis9]		++	+++	+	++	++	++	++	++	++	++	+++	+++	
CCCCCCCCCCCCO [dodecanol]														more readily taken up for WE synthesis than the equivalent-chain-length acyl-CoA carbon chain
